Experimental findings from patent US6569836B2, “6-O-alkyl-2-nor-2-substituted ketolide derivatives” (Abbott Laboratories, priority 1999, dated 2003) are described below.

Assay in all cases: In vitro antibacterial activity, agar dilution MIC
The subject of one assay is Escherichiacoli JUHL. In kind it is cell-based, Escherichia coli. The settings on record: code QQ, BHI agar, 35-37° C., 20-24 hours, unit assumed. Here is the method: (§1) Each plate was inoculated with 1:100 (or 1:10 for slow-growing strains, such as Micrococcus and Streptococcus) dilutions of up to 32 different microorganisms, using a Steers replicator block. The inoculated plates were incubated at 35-37° C. for 20-24 hours. In addition, a control plate using BHI agar with no test compound was prepared and incubated at the beginning and end of each test. A plate containing erythromycin A was also prepared to provide test-to-test comparability. […] After incubation, each plate was visually inspected. The minimum inhibitory concentration (MIC) was defined as the lowest concentration of drug yielding no growth, a slight haze, or sparsely isolated colonies on the inoculum spot as compared to the growth control.

The next assay deals with Escherichiacoli SS. It counts as cell-based, Escherichia coli. Conditions: code RR, BHI agar, 35-37° C., 20-24 hours, unit assumed. Here is the method:
as §1

Assay [1] has as its system Staphylococcus epidermidis 3519. In kind it is cell-based. The settings on record: code HH, BHI agar, 35-37° C., 20-24 hours, unit assumed. Here is the method: as §1
In assay [2] the test system is Staphylococcus aureus A-5177. In kind it is cell-based. Conditions: code BB, BHI agar, 35-37° C., 20-24 hours, unit assumed. Here is the method: as §1
For assay [3], the system named is Staphylococcus aureus A-5278. It counts as cell-based. Conditions: code CC, BHI agar, 35-37° C., 20-24 hours, unit assumed. Here is the method:
as §1

Assay [4] deals with Streptococcus pyogenes PIU 2548. In kind it is cell-based. The settings on record: code NN, BHI agar, 35-37° C., 20-24 hours, unit assumed. The protocol:
as §1

Assay [5] concerns Staphylococcus aureus ATCC 6538P. In kind it is cell-based. Conditions: code AA, BHI agar, 35-37° C., 20-24 hours, unit assumed. Here is the method:
as §1

The subject of assay [6] is Nocardia Asteroides ATCC 99700. It counts as cell-based. Conditions: code VV, BHI agar, 35-37° C., 20-24 hours, unit assumed. Here is the method:
as §1

The test system of assay [7] is Staphylococcus aureus NCTC 10649M. In kind it is cell-based. The settings on record: code EE, BHI agar, 35-37° C., 20-24 hours, unit assumed. Here is the method:
as §1

In assay [8] the test system is Mycobacterium smegmatis ATCC 114. In kind it is cell-based. Conditions: code UU, BHI agar, 35-37° C., 20-24 hours, unit assumed. The protocol:
as §1

Assay [9] relates to Streptococcus pyogenes 930. In kind it is cell-based. Conditions: code MM, BHI agar, 35-37° C., 20-24 hours, unit assumed. The protocol:
as §1

For assay [10], the system named is Streptococcus pyogenes EES61. In kind it is cell-based. The settings on record: code LL, BHI agar, 35-37° C., 20-24 hours, unit assumed. Here is the method: as §1
The next assay concerns Candida albicans CCH 442. It counts as cell-based. The settings on record: code TT, BHI agar, 35-37° C., 20-24 hours, unit assumed. Here is the method: as §1
For assay [11], the system named is Streptococcus agalactiae CMX 508. It counts as cell-based. The settings on record: code KK, BHI agar, 35-37° C., 20-24 hours, unit assumed. Here is the method: as §1
Assay [12] concerns Streptococcus Pneumonia 5649. In kind it is cell-based. Conditions: code ZA, BHI agar, 35-37° C., 20-24 hours, unit assumed. Here is the method:
as §1

Assay [13] relates to Streptococcus bovis A-5169. In kind it is cell-based. Conditions: code JJ, BHI agar, 35-37° C., 20-24 hours, unit assumed. Here is the method:
as §1

Assay [14] has as its system Streptococcus Pneumonia GYR 1171. In kind it is cell-based. The settings on record: code YY, BHI agar, 35-37° C., 20-24 hours. Here is the method:
as §1

Assay [15] deals with Staphylococcus aureus 1775. It counts as cell-based. Conditions: code GG, BHI agar, 35-37° C., 20-24 hours, unit assumed. The protocol:
as §1

For assay [16], the system named is Streptococcus Pneumonia ATCC 6303. In kind it is cell-based. The settings on record: code XX, BHI agar, 35-37° C., 20-24 hours, unit assumed. The protocol:
as §1

For assay [17], the system named is Haemophilislnfluenzae DILL AMP R. In kind it is cell-based, Haemophilus influenzae. Conditions: code WW, BHI agar, 35-37° C., 20-24 hours, unit assumed. The protocol: Representative compounds of the present invention were assayed in vitro for antibacterial activity as follows: twelve petri dishes containing successive aqueous dilutions of the test compound mixed with 10 mL of sterilized Brain Heart Infusion (BHI) agar (Difco 0418-01-5) were prepared. Each plate was inoculated with 1:100 (or 1:10 for slow-growing strains, such as Micrococcus and Streptococcus) dilutions of up to 32 different microorganisms, using a Steers replicator block. The inoculated plates were incubated at 35-37° C. for 20-24 hours. In addition, a control plate using BHI agar with no test compound was prepared and incubated at the beginning and end of each test.
A plate containing erythromycin A was also prepared to provide test-to-test comparability.
After incubation, each plate was visually inspected. The minimum inhibitory concentration (MIC) was defined as the lowest concentration of drug yielding no growth, a slight haze, or sparsely isolated colonies on the inoculum spot as compared to the growth control.

For assay [18], the system named is Streptococcus Pneumonia 5979. In kind it is cell-based. Conditions: code ZZ, BHI agar, 35-37° C., 20-24 hours, unit assumed. Here is the method:
as §1, with “test.” for “test. A plate containing erythromycin A was also prepared to provide test-to-test comparability.”

Assay [19] concerns Micrococcusluteus ATCC 4698. In kind it is cell-based, Micrococcus luteus. The settings on record: code PP, BHI agar, 35-37° C., 20-24 hours, unit assumed. The protocol: as §1

With “Compound of Formula (I), R^p is Hydrogen, Y is Hydrogen, R^1 is —CH2CH(OH)CH(OH)—(3-quinolyl), R^3 is —CH2OH and R^4 is OH [Example 3]”, the Antibacterial Activity (MIC's) was 50 µg/mL with Escherichiacoli JUHL; 0.2 µg/mL in the assay with Escherichiacoli SS; 0.05 µg/mL in assay [1]; 0.05 µg/mL in assay [2]; over 100 µg/mL in [3]; 0.1 µg/mL in [4]. Also, the Antibacterial Activity (MIC's) came to 0.05 µg/mL in [5]; 0.05 µg/mL in assay [6]; 0.1 µg/mL in [7]; 3.1 µg/mL in [8]; 12.5 µg/mL in [9]; 0.01 µg/mL in [10]. Besides, the Antibacterial Activity (MIC's) in the assay with Candida albicans CCH 442 was over 100 µg/mL; in assay [11], 0.01 µg/mL; in assay [12], 0.25 µg/mL; in assay [13] it was 0.01 µg/mL; in assay [14], “≦0.004”; in assay [15], over 100 µg/mL. For the same substance, the Antibacterial Activity (MIC's) turned out to be 0.008 µg/mL in assay [16], 2 µg/mL in [17], 64 µg/mL in assay [18] and 0.05 µg/mL in assay [19].
